Like-named read-outs stand apart in the source and are kept apart here.

This note sets out measurements from patent publication US20260216134A1, “CHARGED PI-CONJUGATED MOLECULES FOR THE TREATMENT OF MICROBIAL INFECTIONS” (priority 2023, published 2026).

For data set [1], the system named is A375 cancer cells (melanoma). Kind of data set: Crystal violet cytotoxicity test in A375 cells without light activation. Format: cell-based, human. As for the experimental part:
(§1) The inhibitory concentration of charged pi-conjugated compounds needed to inhibit the cell growth by 50% (toxicity IC50).
(§2) Most of the charged pi-conjugated compounds are aminocyanines which are functionalized with alkyl amine group. The charged pi-conjugated compounds were added to cell cultures of A375 cancer cells (human melanoma) and their cytotoxicity was quantified by the crystal violet test and/or clonogenic assays for cell viability. […] The longer the exposure the most cytotoxic the charged pi-conjugated compounds are towards A375 cells. […] The same behavior is observed: the longer the exposure, the more cytotoxic. All molecules presented here are aminocyanines except GL-261-2 which is a carboxyl-cyanine. […] This was the first time a therapeutic window of concentration that can be tuned to selectively kill cancer and/or protect cells was suspected. In finding this therapeutic window concentration and time of exposure are important variables that should be fine tuned.
(§3) Based on the finding described above, a larger set of charged pi-conjugated compounds was evaluated for cytotoxicity against A375 cancer cells as shown in FIG. 25 and FIG. 26.
(§4) The IC50 is the concentration needed to inhibit the cell viability by 50%. These molecules in FIG. 25 and FIG. 26 were evaluated by crystal violet assay and using 2 days of exposure.

Data set [2] concerns A375 cancer cells (melanoma). The experiment in a line: Clonogenic assay cytotoxicity in A375 cells without light. Type of data set: cell-based, human. Here is the method:
(§5) FIGS. 28A-28B provide a summary of the evidence of the cytotoxicity of charged pi-conjugated compounds without light. Toxicity was measured using clonogenic assay with 7 hours of incubation (contact time between molecules and A375 cells) and 7 days for colony formation. (FIG. 28A) The lethal concentration of the cyanine molecules to kill 50% of the A375 cells (Tox LC50) without light activation. (FIG. 28B) Chemical structure of exemplary charged pi-conjugated compounds. On average, 300 cells equal to 300 colonies were seeded and analyzed for each data point.
(§6) Both properties were measured using clonogenic assay with 7 hours of incubation (contact time between molecules and A375 cells) and 7 days for colony formation. 300 cells were seeded and analyzed for each data point.
(§7) More cytotoxicity tests were conducted in some additional molecules and using clonogenic assay for cell viability (FIG. 28). A375 cells were exposed to charged pi-conjugated compounds for 7 hours, in contrast to the previously presented assays which were conducted with crystal violet assay and 2 days of exposure. The data points showing the cytotoxicity quantification for each individual molecule are presented in FIG. 29, with resulting IC50 values summarized in Table 4.

Data set [3] is described as follows: Crystal violet cytotoxicity test in A375 cells without light activation. Format: cell-based, human. The settings on record: human. As for the experimental part:
as §1, §2, §3, §4

A short description of data set [4]: Clonogenic assay cytotoxicity in A375 cells without light. Type of data set: cell-based, human. Particulars: human. Here is the method:
as §5, §6, §7

A further data set concerns Gram-positive strains. Kind of data set: MIC / MIC50 by broth microdilution in panel of Gram-positive strains. Particulars: MIC50 over all Gram-positive strains tested (Table 2). Format: cell-based. As for the experimental part: Antibacterial activity was assessed by determining the minimal inhibitory concentration (MIC) and the minimal bactericidal concentrations (MBC) and by monitoring time-dependent bacterial killing of exponentially growing cells. Bacterial cell suspensions (OD600≈0.02 in cation-adjusted Muller-Hinton Broth) were treated with increasing concentrations of the different molecules. The minimal inhibitory concentration (MIC) was defined as the minimal concentration of the molecule resulting in complete bacterial growth arrest. The minimal bactericidal concentration (MBC) was defined as the lowest concentration of the molecule that killed 99.9% of the inoculum. A molecule was determined to be bactericidal if the ratio of the MBC to the MIC was less than 4 to 6. […] In M. smegmatis, the antibacterial activity of charged pi-conjugated compounds was generally lower.
The MIC values for all Gram-positive strains tested (Table 2) were used to calculate the MIC50, i.e., the minimum inhibitory concentration needed to inhibit the growth of 50% of the tested isolates (FIG. 5A). […] When the average MIC50 values were evaluated, the most susceptible bacterial genera were Streptococcus sp., followed by Staphylococcus sp. In contrast, Propionibacterium sp. had the highest average MIC50 (FIG. 5B).
The broth microdilution method was used to determine the MIC of charged pi-conjugated compounds according to the CLSI guidelines. Charged pi-conjugated compound stock solutions (16 mM) were prepared in dimethyl sulfoxide (DMSO). Serial twofold dilutions of the charged pi-conjugated compounds were freshly prepared using the appropriate liquid media (Table 2), and 100 μL of each dilution was added to the appropriate wells of 96-well microtiter plates. The bacterial inoculum was further diluted in liquid media, and 100 μL was added to each well, resulting in a final cell density of ≈5×10^5 CFU mL^−1. […] A molecule was determined to be bactericidal if the ratio of the MBC to the MIC was less than 4 to 6. […]

For a further data set, the system named is S. aureus. The experiment in a line: Time-kill of combinations at 0.5×MIC. Format: cell-based, Staphylococcus aureus. The settings on record: 0.5×MIC of individual agent, after 12 h of treatment.
Setting [5] is: crystal violet assay, 2 days of exposure, without light activation, read-out: IC50 (μM), cytotoxicity to A375 cancer cells.
The mark [6] stands for this setting: clonogenic assay, 7 hours of exposure, 7 days colony formation, without light, read-out: IC50 (μM), cytotoxicity to A375 cancer cells.

By IC50 is commonly meant the concentration that inhibits the measured activity by half. Take `CN1/C(=C/C=C2C=C(/C=C/C3=[N+](C)c4ccc5ccccc5c4C3(C)C)CCC/2)C(C)(C)c2c1ccc1ccccc21` [BL-141-1, 1,1,3-trimethyl-2-((E)-2-((E)-3-((E)-2-(1,1,3-trimethyl-1,3-dihydro-2H-benzo[e]indol-2-ylidene)ethylidene)cyclohex-1-en-1-yl)vinyl)-1H-benzo[e]indol-3-ium]: the figures for the half-maximal inhibitory concentration (IC50) in data set [1] (setting [5]) and in data set [2] (setting [6]) were 0.125 µM and 0.14 µM, respectively.

Regarding `CN(C)CCCCCCN1/C(=C/C=C2C=C(/C=C/C3=[N+](CCCCCCN(C)C)c4ccc5ccccc5c4C3(C)C)CCC/2)C(C)(C)c2c1ccc1ccccc21.[Br-]` [BL-142, 3-(6-(dimethylamino)hexyl)-2-((E)-2-((E)-3-((E)-2-(3-(6-(dimethylamino)hexyl)-1,1-dimethyl-1,3-dihydro-2H-benzo[e]indol-2-ylidene)ethylidene)cyclohex-1-en-1-yl)vinyl)-1,1-dimethyl-1H-benzo[e]indol-3-ium], the “cytotoxicity at long exposure” value in data set [1] is recorded as “showed cytotoxicity”. In data set [3], the IC50 at 2 days was found to be 2.5 µM.

`CN1/C(=C/C=C2C=C(/C=C/C3=[N+](CCCCCC(=O)O)c4ccc5ccccc5c4C3(C)C)CCC/2)C(C)(C)c2c1ccc1ccccc21` [BL-242, 3-(5-carboxypentyl)-1,1-dimethyl-2-((E)-2-((E)-3-((E)-2-(1,1,3-trimethyl-1,3-dihydro-2H-benzo[e]indol-2-ylidene)ethylidene)cyclohex-1-en-1-yl)vinyl)-1H-benzo[e]indol-3-ium] registered an IC50 at 7 h in data set [4] of 2 µM. For `COC(=O)CCCCCN1/C(=C/C=C2C=C(/C=C/C3=[N+](CCCCCC(=O)OC)c4ccc5ccccc5c4C3(C)C)CCC/2)C(C)(C)c2c1ccc1ccccc21` [BL-246-1, 3-(6-methoxy-6-oxohexyl)-2-((E)-2-((E)-3-((E)-2-(3-(6-methoxy-6-oxohexyl)-1,1-dimethyl-1,3-dihydro-2H-benzo[e]indol-2-ylidene)ethylidene)cyclohex-1-en-1-yl)vinyl)-1,1-dimethyl-1H-benzo[e]indol-3-ium], in data set [4], the IC50 at 7 h stood at 0.6 µM. In the case of `C[N+]1=C(C=CC=CC=C2N(CCCCCC(=O)NCCCCCCN)c3ccccc3C2(C)C)C(C)(C)c2ccccc21` [Cy5-amine], in data set [1], the IC50 stood at 8 µM. As to `C[N+]1=C(/C=C/C=C/C=C2/N(CCCCCC(=O)NCCCCCCN)c3ccc4ccccc4c3C2(C)C)C(C)(C)c2c1ccc1ccccc21.Cl.[Cl-]` [Cy5.5-amine], in data set [1], inhibition was half-maximal at 2 µM (IC50); the “cytotoxicity at short exposure” value was “safe and showed low cytotoxicity”. The “antibacterial activity according to MIC50” value in the data set on Gram-positive strains is given as “strongest antibacterial activity”. Regarding `C[N+]1=C(/C=C/C2=CC(=C/C=C3/N(CCCCCC(=O)NCCCCCCN)c4ccccc4C3(C)C)/CCC2)C(C)(C)c2ccccc21` [Cy7-amine], the IC50 turned out to be 2 µM in data set [1] and 0.75 µM in data set [2]. In data set [1], `CN1/C(=C/C=C/C=C/C=C/C2=[N+](C)c3ccc4ccccc4c3C2(C)C)C(C)(C)c2c1ccc1ccccc21` [GL-176] showed an IC50 of 0.25 µM. Regarding `CN1/C(=C/C=C/C=C/C=C/C2=[N+](CCCCCC(=O)O)c3ccc4ccccc4c3C2(C)C)C(C)(C)c2c1ccc1ccccc21` [GL-261-2], in data set [1] (A375, exposure ~30-50 min), the “cytotoxicity at short exposure” value was “safe and showed low cytotoxicity”. Also, the “effect toward A375 cells at short exposure” value in data set [1] (~50 min exposure, 1-4 μM) is “protective effect”. In addition, in data set [3] (setting [5]), the IC50 at 2 days was 2 µM. Further, in data set [4] (setting [6]), the IC50 at 7 h came to 5 µM. `CN1/C(=C/C=C/C=C/C=C/C2=[N+](CCCCCCN)c3ccc4ccccc4c3C2(C)C)C(C)(C)c2c1ccc1ccccc21` [GL-286]: the “cell viability at short incubation and low concentration” value in data set [1] (1 day incubation, concentrations below 1 μM) is reported as “can increase the cell viability”. Further, the “cytotoxicity at long exposure” value in data set [1] (A375, 1 day vs 2 days exposure) is reported as “showed cytotoxicity”. Further, the IC50 at 2 days in data set [3] (setting [5]) is 2.88 µM. In addition, in data set [4] (setting [6]), the IC50 at 7 h was found to be 1 µM. On to `CN(C)CCCCCC[N+]1=C(/C=C/C=C/C=C/C=C2/N(C)c3ccc4ccccc4c3C2(C)C)C(C)(C)c2c1ccc1ccccc21` [GL-291-2], for which, in data set [1], the “cytotoxicity at long exposure” value is given as “showed cytotoxicity”. Also, in data set [3], the IC50 at 2 days is 1.5 µM. Turning to `COC(=O)C(/C=C/C=C1/N(C)c2ccc3ccccc3c2C1(C)C)=C(C)\C=C\C1=[N+](CCCCCCN(C)C)c2ccc3ccccc3c2C1(C)C` [GL-297-2], in data set [3], the IC50 at 2 days was determined as 1 µM. In addition, the IC50 at 7 h in data set [4] worked out at 0.45 µM.

In data set [3], `CN(C)CC[N+]1=C(/C=C/C=C/C=C/C=C2/N(C)c3ccc4ccccc4c3C2(C)C)C(C)(C)c2c1ccc1ccccc21` [GL-308-2] registered an IC50 at 2 days of 0.5 µM. On to `CN1/C(=C/C=C/C=C/C=C/C2=[N+](CCCCCC[N+](C)(C)C)c3ccc4ccccc4c3C2(C)C)C(C)(C)c2c1ccc1ccccc21` [GL-328-2], for which half-maximal inhibition in data set [3] (IC50 at 2 days) required 7 µM. Take `CN(C)CC[N+]1=C(/C=C/C2=CC(=C/C=C3/N(C)c4ccc5ccccc5c4C3(C)C)/CC(C(C)(C)C)C2)C(C)(C)c2c1ccc1ccccc21` (stereo not shown) [GL-349-2]: in data set [3], half-maximal inhibition (IC50 at 2 days) required 0.3 µM.

In turn, `CC(=O)NCCCCCC[N+]1=C(/C=C/C=C/C=C/C=C2/N(C)c3ccc4ccccc4c3C2(C)C)C(C)(C)c2c1ccc1ccccc21` [GL-362-2] showed an IC50 at 7 h in data set [4] of 0.19 µM. With `CCCCCCCCCC(=O)N[C@@H](Cc1c[nH]c2ccccc12)C(=O)N[C@H](CC(N)=O)C(=O)N[C@@H](CC(=O)O)C(=O)N[C@@H]1C(=O)NCC(=O)N[C@@H](CCCN)C(=O)N[C@@H](CC(=O)O)C(=O)N[C@H](C)C(=O)N[C@@H](CC(=O)O)C(=O)NCC(=O)N[C@H](CO)C(=O)N[C@@H]([C@H](C)CC(=O)O)C(=O)N[C@@H](CC(=O)c2ccccc2N)C(=O)O[C@@H]1C` [daptomycin], in the data set on S. aureus, the “maximum reduction in bacterial population size” value is “≈ 3 log10”.

Regarding gramicidin, the “maximum reduction in bacterial population size” value in the data set on S. aureus is recorded as “≈ 3 log10”.
